From ChEMBL document CHEMBL5724914, “Linking interpersonal differences in gut microbiota composition and drug biotransformation activity” (2024)

Key:
[1] = The drug is tested on Z-026 corresponding to metagenome with ENA study accession number: PRJEB37062 and ENA sample accession number: ERS12561825 for biotransformation under anaerobic condition. The drug concentrations were measured over 9 timepoints collected between 0 and 24 hours of incubation by liquid-chromatography-coupled mass spectrometry (LC–MS); conditions: 2 µM
[2] = The drug is tested on Z-014 corresponding to rat gut metagenome with ENA study accession number: PRJEB37062 and ENA sample accession number: ERS12561814 for biotransformation under anaerobic condition. The drug concentrations were measured over 9 timepoints collected between 0 and 24 hours of incubation by liquid-chromatography-coupled mass spectrometry (LC–MS); conditions: 2 µM
[3] = The drug is tested on Z-007 corresponding to rat gut metagenome with ENA study accession number: PRJEB37062 and ENA sample accession number: ERS12561807 for biotransformation under anaerobic condition. The drug concentrations were measured over 9 timepoints collected between 0 and 24 hours of incubation by liquid-chromatography-coupled mass spectrometry (LC–MS); conditions: 2 µM
[4] = The drug is tested on Z-001 corresponding to mouse gut metagenome with ENA study accession number: PRJEB37062 and ENA sample accession number: ERS12561801 for biotransformation under anaerobic condition. The drug concentrations were measured over 9 timepoints collected between 0 and 24 hours of incubation by liquid-chromatography-coupled mass spectrometry (LC–MS); conditions: 2 µM
[5] = The drug is tested on WLS-370 corresponding to human gut metagenome with ENA study accession number: PRJEB37062 and ENA sample accession number: ERS12561793 for biotransformation under anaerobic condition. The drug concentrations were measured over 9 timepoints collected between 0 and 24 hours of incubation by liquid-chromatography-coupled mass spectrometry (LC–MS); conditions: 2 µM
[6] = The drug is tested on WLS-086 corresponding to human gut metagenome with ENA study accession number: PRJEB37062 and ENA sample accession number: ERS12561752 for biotransformation under anaerobic condition. The drug concentrations were measured over 9 timepoints collected between 0 and 24 hours of incubation by liquid-chromatography-coupled mass spectrometry (LC–MS); conditions: 2 µM
[7] = The drug is tested on WLS-052 corresponding to human gut metagenome with ENA study accession number: PRJEB37062 and ENA sample accession number: ERS12561747 for biotransformation under anaerobic condition. The drug concentrations were measured over 9 timepoints collected between 0 and 24 hours of incubation by liquid-chromatography-coupled mass spectrometry (LC–MS); conditions: 2 µM
[8] = The drug is tested on WLS-010 corresponding to human gut metagenome with ENA study accession number: PRJEB37062 and ENA sample accession number: ERS12561743 for biotransformation under anaerobic condition. The drug concentrations were measured over 9 timepoints collected between 0 and 24 hours of incubation by liquid-chromatography-coupled mass spectrometry (LC–MS); conditions: 2 µM
[9] = human gut metagenome, 24 h, 2 µM
[10] = human gut metagenome, 24 h, 2 µM; remark: listed apart in the source
[11] = human gut metagenome, 24 h, 2 µM; remark: listed apart in the source
[12] = human gut metagenome, 24 h, 2 µM; remark: listed apart in the source
[13] = human gut metagenome, 24 h, 2 µM; remark: listed apart in the source
[14] = human gut metagenome, 24 h, 2 µM; remark: listed apart in the source
[15] = human gut metagenome, 24 h, 2 µM; remark: listed apart in the source
[16] = human gut metagenome, 24 h, 2 µM; remark: listed apart in the source
[17] = human gut metagenome, 24 h, 2 µM; remark: listed apart in the source
[18] = human gut metagenome, 24 h, 2 µM; remark: listed apart in the source
[19] = The drug is tested on WLS-077 corresponding to human gut metagenome with ENA study accession number: PRJEB37062 and ENA sample accession number: ERS12561750 for biotransformation under anaerobic condition. The drug concentrations were measured over 9 timepoints collected between 0 and 24 hours of incubation by liquid-chromatography-coupled mass spectrometry (LC–MS); conditions: 2 µM
[20] = human gut metagenome, 24 h, 2 µM; remark: listed apart in the source

Measured: Bacterial Biotransformation
Note: call rule not given here.

CSc1ccc2c(c1)C(N1CCN(C)CC1)Cc1ccccc1S2.O=C(O)/C=C\C(=O)O (stereo not given)
Compound metabolized: [3] | [4] | [6] | [7] | [8] | [18]
not listed: [19] | [20]
Compound NOT metabolized: all other assays above

CN1C[C@H](C(=O)N[C@]2(C)O[C@@]3(O)[C@@H]4CCCN4C(=O)[C@H](Cc4ccccc4)N3C2=O)C[C@@H]2c3cccc4[nH]cc(c34)C[C@H]21.CS(=O)(=O)O [DIHYDROERGOTAMINE MESYLATE]
Compound metabolized: [1]
Compound NOT metabolized: [2] | [3] | [4]

CCOC(=O)[C@H](CCc1ccccc1)N[C@@H](C)C(=O)N1CCC[C@H]1C(=O)O.O=C(O)/C=C\C(=O)O [ENALAPRIL MALEATE]
not listed: [2]
Compound NOT metabolized: all other assays above

Cc1ccc(NC(=O)c2ccc(CN3CCN(C)CC3)cc2)cc1Nc1nccc(-c2cccnc2)n1 [IMATINIB]
Compound NOT metabolized: [1] | [2] | [3] | [4]

C#C[C@]1(OC(C)=O)CC[C@H]2[C@@H]3CCC4=CC(=O)CC[C@@H]4[C@H]3CC[C@@]21C [NORETHINDRONE ACETATE]
Compound NOT metabolized: [6] | [17] | [18]
not listed: [1] | [2] | [3] | [13] | [14] | [19] | [20]
Compound metabolized: all other assays above

CC(=O)O[C@H]1C(=O)[C@@]2(C)[C@H]([C@H](OC(=O)c3ccccc3)[C@]3(O)C[C@H](OC(=O)[C@H](O)[C@@H](NC(=O)c4ccccc4)c4ccccc4)C(C)=C1C3(C)C)[C@]1(OC(C)=O)CO[C@@H]1C[C@@H]2O [PACLITAXEL]
Compound metabolized: [1] | [2] | [19] | [7] | [8]
not listed: [20]
Compound NOT metabolized: all other assays above

CCCCCNC(=N)N/N=C/c1c[nH]c2ccc(OC)cc12.O=C(O)/C=C\C(=O)O [TEGASEROD MALEATE]
Compound metabolized: [19] | [7]
not listed: [15] | [20]
Compound NOT metabolized: all other assays above
